Reference: the CheMixHub ionic liquid set
Several values for one entry are separate records, joined by “and”; a condition that tells them apart may be missing. Equal values may be shown once. ± gives the uncertainty stated by the source.

Test: xn = mol fraction of the nth substance listed
Settings: 100 kPa; for electrical conductivity: frequency 0.003 MHz

CC1COC(=O)O1 (configuration not stated) + CCCC[n+]1ccn(C)c1.F[B-](F)(F)F
Settings | electrical conductivity [S/m] | viscosity
296.9 K, x2 = 0.4 | 0.993 ± 0.06 | –
297 K, x2 = 0.6 | 0.747 ± 0.045 | –
297 K, x2 = 0.8 | 0.59 ± 0.035 | –
297.1 K, x2 = 0.2 | 1.26 ± 0.076 | –
297.1 K, x2 = 0.9 | 0.441 ± 0.026 | –
298.1 K, x2 = 0.2 | – | 6.8 ± 0.7 mPa·s and 6.5 ± 0.7 mPa·s
298.1 K, x2 = 0.4 | – | 14.8 ± 1.5 mPa·s and 14.4 ± 1.5 mPa·s
298.1 K, x2 = 0.6 | – | 32.4 ± 3.3 mPa·s and 32.5 ± 3.3 mPa·s
298.1 K, x2 = 0.8 | – | 45.9 ± 4.6 mPa·s and 46.1 ± 4.7 mPa·s
298.1 K, x2 = 0.9 | – | 55.6 ± 5.6 mPa·s and 55.7 ± 5.7 mPa·s
298.15 K, x2 = 0.15 | – | 5.2 ± 0.2 mPa·s
298.15 K, x2 = 0.2 | – | 6.9 ± 0.3 mPa·s
299.9 K, x2 = 0.2 | 1.3 ± 0.078 | –
299.9 K, x2 = 0.4 | 1.04 ± 0.062 | –
299.9 K, x2 = 0.8 | 0.63 ± 0.038 | –
299.9 K, x2 = 0.9 | 0.482 ± 0.029 | –
300 K, x2 = 0.6 | 0.794 ± 0.048 | –
302.5 K, x2 = 0.9 | 0.522 ± 0.031 | –
302.6 K, x2 = 0.2 | 1.32 ± 0.079 | –
302.6 K, x2 = 0.6 | 0.84 ± 0.05 | –
302.6 K, x2 = 0.8 | 0.675 ± 0.041 | –
302.7 K, x2 = 0.4 | 1.08 ± 0.065 | –
303 K, x2 = 0.2 | – | 5.6 ± 0.6 mPa·s
303 K, x2 = 0.4 | – | 11.5 ± 1.2 mPa·s
303 K, x2 = 0.6 | – | 22.4 ± 2.3 mPa·s
303 K, x2 = 0.8 | – | 33.1 ± 3.3 mPa·s
303 K, x2 = 0.9 | – | 45.7 ± 4.6 mPa·s
305.4 K, x2 = 0.8 | 0.72 ± 0.043 | –
305.4 K, x2 = 0.9 | 0.564 ± 0.034 | –
305.5 K, x2 = 0.2 | 1.34 ± 0.08 | –
305.5 K, x2 = 0.4 | 1.13 ± 0.068 | –
305.6 K, x2 = 0.6 | 0.882 ± 0.053 | –
308.1 K, x2 = 0.2 | – | 5.1 ± 0.5 mPa·s
308.1 K, x2 = 0.4 | – | 10.1 ± 1 mPa·s
308.1 K, x2 = 0.6 | – | 18.8 ± 1.9 mPa·s
308.1 K, x2 = 0.8 | – | 25.8 ± 2.6 mPa·s
308.1 K, x2 = 0.9 | – | 36.5 ± 3.7 mPa·s
308.2 K, x2 = 0.2 | 1.36 ± 0.082 | –
308.2 K, x2 = 0.4 | 1.17 ± 0.07 | –
308.2 K, x2 = 0.6 | 0.93 ± 0.056 | –
308.2 K, x2 = 0.8 | 0.759 ± 0.046 | –
308.2 K, x2 = 0.9 | 0.607 ± 0.036 | –
310.9 K, x2 = 0.2 | 1.4 ± 0.084 | –
311 K, x2 = 0.6 | 0.968 ± 0.058 | –
311 K, x2 = 0.8 | 0.803 ± 0.048 | –
311 K, x2 = 0.9 | 0.65 ± 0.039 | –
311.2 K, x2 = 0.4 | 1.21 ± 0.073 | –
313 K, x2 = 0.2 | – | 4.3 ± 0.4 mPa·s
313 K, x2 = 0.4 | – | 8.6 ± 0.9 mPa·s
313 K, x2 = 0.6 | – | 15.7 ± 1.6 mPa·s
313 K, x2 = 0.8 | – | 21.6 ± 2.2 mPa·s
313 K, x2 = 0.9 | – | 31 ± 3.1 mPa·s
313.6 K, x2 = 0.4 | 1.25 ± 0.075 | –
313.6 K, x2 = 0.6 | 1.01 ± 0.06 | –
313.6 K, x2 = 0.8 | 0.846 ± 0.051 | –
313.6 K, x2 = 0.9 | 0.691 ± 0.041 | –
313.9 K, x2 = 0.2 | 1.41 ± 0.084 | –
316.5 K, x2 = 0.6 | 1.05 ± 0.063 | –
316.5 K, x2 = 0.8 | 0.892 ± 0.054 | –
316.6 K, x2 = 0.9 | 0.74 ± 0.044 | –
316.7 K, x2 = 0.2 | 1.43 ± 0.086 | –
316.7 K, x2 = 0.4 | 1.29 ± 0.077 | –
318.1 K, x2 = 0.2 | – | 3.8 ± 0.4 mPa·s
318.1 K, x2 = 0.4 | – | 7.6 ± 0.8 mPa·s
318.1 K, x2 = 0.6 | – | 12.6 ± 1.3 mPa·s
318.1 K, x2 = 0.8 | – | 18.5 ± 1.9 mPa·s
318.1 K, x2 = 0.9 | – | 25.4 ± 2.6 mPa·s
319.2 K, x2 = 0.4 | 1.32 ± 0.079 | –
319.3 K, x2 = 0.6 | 1.1 ± 0.066 | –
319.3 K, x2 = 0.8 | 0.933 ± 0.056 | –
319.5 K, x2 = 0.9 | 0.786 ± 0.047 | –
319.7 K, x2 = 0.2 | 1.45 ± 0.087 | –
322 K, x2 = 0.8 | 0.979 ± 0.059 | –
322 K, x2 = 0.9 | 0.829 ± 0.05 | –
322.2 K, x2 = 0.2 | 1.47 ± 0.088 | –
322.2 K, x2 = 0.4 | 1.35 ± 0.081 | –
322.2 K, x2 = 0.6 | 1.15 ± 0.069 | –
323 K, x2 = 0.2 | – | 3 ± 0.3 mPa·s
323 K, x2 = 0.4 | – | 6.5 ± 0.7 mPa·s
323 K, x2 = 0.6 | – | 10.6 ± 1.1 mPa·s
323 K, x2 = 0.8 | – | 16 ± 1.6 mPa·s
323 K, x2 = 0.9 | – | 22.1 ± 2.2 mPa·s
324.8 K, x2 = 0.4 | 1.38 ± 0.083 | –
324.8 K, x2 = 0.8 | 1.02 ± 0.061 | –
324.8 K, x2 = 0.9 | 0.874 ± 0.052 | –
325 K, x2 = 0.6 | 1.18 ± 0.071 | –
325.1 K, x2 = 0.2 | 1.49 ± 0.09 | –
327.4 K, x2 = 0.4 | 1.41 ± 0.084 | –
327.6 K, x2 = 0.6 | 1.22 ± 0.073 | –
327.6 K, x2 = 0.8 | 1.06 ± 0.064 | –
327.6 K, x2 = 0.9 | 0.921 ± 0.055 | –
327.8 K, x2 = 0.2 | 1.51 ± 0.091 | –
328.1 K, x2 = 0.2 | – | 2.6 ± 0.3 mPa·s
328.1 K, x2 = 0.4 | – | 5.8 ± 0.6 mPa·s
328.1 K, x2 = 0.6 | – | 9.3 ± 0.9 mPa·s
328.1 K, x2 = 0.8 | – | 14.2 ± 1.4 mPa·s
328.1 K, x2 = 0.9 | – | 19.7 ± 2 mPa·s
330.4 K, x2 = 0.6 | 1.25 ± 0.075 | –
330.6 K, x2 = 0.2 | 1.53 ± 0.092 | –
330.6 K, x2 = 0.4 | 1.44 ± 0.086 | –
330.6 K, x2 = 0.8 | 1.11 ± 0.067 | –
330.6 K, x2 = 0.9 | 0.971 ± 0.058 | –
333 K, x2 = 0.2 | – | 2.4 ± 0.2 mPa·s
333 K, x2 = 0.4 | – | 5.4 ± 0.5 mPa·s
333 K, x2 = 0.6 | – | 8.2 ± 0.8 mPa·s
333 K, x2 = 0.8 | – | 12.4 ± 1.2 mPa·s
333 K, x2 = 0.9 | – | 17.2 ± 1.7 mPa·s
333.2 K, x2 = 0.4 | 1.46 ± 0.088 | –
333.2 K, x2 = 0.6 | 1.29 ± 0.077 | –
333.2 K, x2 = 0.8 | 1.15 ± 0.069 | –
333.3 K, x2 = 0.9 | 1.01 ± 0.061 | –
333.4 K, x2 = 0.2 | 1.56 ± 0.094 | –
335.9 K, x2 = 0.6 | 1.33 ± 0.08 | –
335.9 K, x2 = 0.8 | 1.19 ± 0.072 | –
335.9 K, x2 = 0.9 | 1.06 ± 0.064 | –
336.1 K, x2 = 0.2 | 1.55 ± 0.093 | –
336.1 K, x2 = 0.4 | 1.49 ± 0.09 | –
338.1 K, x2 = 0.2 | – | 2.1 ± 0.2 mPa·s
338.1 K, x2 = 0.4 | – | 4.9 ± 0.5 mPa·s
338.1 K, x2 = 0.6 | – | 7.2 ± 0.7 mPa·s
338.1 K, x2 = 0.8 | – | 10.6 ± 1.1 mPa·s
338.1 K, x2 = 0.9 | – | 15.9 ± 1.6 mPa·s
338.7 K, x2 = 0.9 | 1.1 ± 0.066 | –
338.8 K, x2 = 0.6 | 1.36 ± 0.082 | –
338.9 K, x2 = 0.8 | 1.24 ± 0.074 | –
339 K, x2 = 0.4 | 1.52 ± 0.091 | –
339.1 K, x2 = 0.2 | 1.58 ± 0.095 | –
341.5 K, x2 = 0.4 | 1.55 ± 0.093 | –
341.6 K, x2 = 0.8 | 1.27 ± 0.076 | –
341.6 K, x2 = 0.9 | 1.16 ± 0.069 | –
341.8 K, x2 = 0.2 | 1.59 ± 0.096 | –
341.8 K, x2 = 0.6 | 1.39 ± 0.084 | –
343 K, x2 = 0.2 | – | 2.1 ± 0.2 mPa·s
343 K, x2 = 0.4 | – | 4.4 ± 0.4 mPa·s
343 K, x2 = 0.6 | – | 6.1 ± 0.6 mPa·s
343 K, x2 = 0.8 | – | 9.5 ± 1 mPa·s
343 K, x2 = 0.9 | – | 14.3 ± 1.4 mPa·s
344.2 K, x2 = 0.4 | 1.59 ± 0.095 | –
344.2 K, x2 = 0.6 | 1.43 ± 0.086 | –
344.3 K, x2 = 0.9 | 1.19 ± 0.072 | –
344.4 K, x2 = 0.2 | 1.62 ± 0.098 | –
344.4 K, x2 = 0.8 | 1.32 ± 0.079 | –
347 K, x2 = 0.6 | 1.47 ± 0.088 | –
347.1 K, x2 = 0.8 | 1.36 ± 0.082 | –
347.1 K, x2 = 0.9 | 1.25 ± 0.075 | –
347.2 K, x2 = 0.2 | 1.64 ± 0.098 | –
347.2 K, x2 = 0.4 | 1.6 ± 0.096 | –
348.1 K, x2 = 0.2 | – | 2.1 ± 0.2 mPa·s
348.1 K, x2 = 0.4 | – | 3.9 ± 0.4 mPa·s
348.1 K, x2 = 0.6 | – | 5.6 ± 0.6 mPa·s
348.1 K, x2 = 0.8 | – | 8.5 ± 0.9 mPa·s
348.1 K, x2 = 0.9 | – | 13 ± 1.3 mPa·s
349.6 K, x2 = 0.2 | 1.66 ± 0.099 | –
349.9 K, x2 = 0.9 | 1.3 ± 0.078 | –
350 K, x2 = 0.4 | 1.62 ± 0.097 | –
350 K, x2 = 0.6 | 1.5 ± 0.09 | –
350 K, x2 = 0.8 | 1.4 ± 0.084 | –
